Assay results taken from the supplement of paper PMC12076712.

How the values were obtained:
Test in all cases: pIC50, kinobeads binding competition
Conditions in all cases: cell material: Jurkat lysate
STK33 = STK33 (UniProt Q9BYT3)
TXK = target: T1, TXK (UniProt P42681)
T1 sequence (whole entry): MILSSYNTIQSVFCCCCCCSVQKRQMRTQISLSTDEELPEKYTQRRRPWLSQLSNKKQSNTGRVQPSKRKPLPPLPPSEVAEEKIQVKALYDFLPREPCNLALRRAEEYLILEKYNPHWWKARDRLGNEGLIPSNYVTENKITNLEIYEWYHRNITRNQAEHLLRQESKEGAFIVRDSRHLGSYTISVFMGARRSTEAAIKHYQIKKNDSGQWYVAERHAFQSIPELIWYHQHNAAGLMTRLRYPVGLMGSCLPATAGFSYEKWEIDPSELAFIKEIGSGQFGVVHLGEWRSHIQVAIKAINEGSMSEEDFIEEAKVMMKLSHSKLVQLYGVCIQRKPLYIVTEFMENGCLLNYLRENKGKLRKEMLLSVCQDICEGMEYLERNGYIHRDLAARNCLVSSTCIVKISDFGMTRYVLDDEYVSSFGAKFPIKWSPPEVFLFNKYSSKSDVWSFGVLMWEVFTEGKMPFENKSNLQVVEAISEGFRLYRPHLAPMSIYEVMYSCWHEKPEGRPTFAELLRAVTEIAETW

ULK3 = target: T2, ULK3 (UniProt Q6PHR2)
T2 sequence (whole entry): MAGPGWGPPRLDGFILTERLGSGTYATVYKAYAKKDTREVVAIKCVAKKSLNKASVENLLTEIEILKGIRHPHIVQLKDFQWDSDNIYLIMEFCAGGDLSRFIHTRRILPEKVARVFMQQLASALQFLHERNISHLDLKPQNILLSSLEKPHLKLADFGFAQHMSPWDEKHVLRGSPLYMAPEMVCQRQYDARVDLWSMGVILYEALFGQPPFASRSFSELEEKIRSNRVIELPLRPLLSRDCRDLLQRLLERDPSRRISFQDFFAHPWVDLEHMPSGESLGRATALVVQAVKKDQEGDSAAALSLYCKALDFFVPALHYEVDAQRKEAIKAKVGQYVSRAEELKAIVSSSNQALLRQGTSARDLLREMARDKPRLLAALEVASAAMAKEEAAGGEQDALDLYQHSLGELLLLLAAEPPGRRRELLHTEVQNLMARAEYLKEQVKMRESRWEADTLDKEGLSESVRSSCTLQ

UniProt Q16513 = target: UniProt Q16513
Sequence of UniProt Q16513 (Q16513 whole entry, looked up): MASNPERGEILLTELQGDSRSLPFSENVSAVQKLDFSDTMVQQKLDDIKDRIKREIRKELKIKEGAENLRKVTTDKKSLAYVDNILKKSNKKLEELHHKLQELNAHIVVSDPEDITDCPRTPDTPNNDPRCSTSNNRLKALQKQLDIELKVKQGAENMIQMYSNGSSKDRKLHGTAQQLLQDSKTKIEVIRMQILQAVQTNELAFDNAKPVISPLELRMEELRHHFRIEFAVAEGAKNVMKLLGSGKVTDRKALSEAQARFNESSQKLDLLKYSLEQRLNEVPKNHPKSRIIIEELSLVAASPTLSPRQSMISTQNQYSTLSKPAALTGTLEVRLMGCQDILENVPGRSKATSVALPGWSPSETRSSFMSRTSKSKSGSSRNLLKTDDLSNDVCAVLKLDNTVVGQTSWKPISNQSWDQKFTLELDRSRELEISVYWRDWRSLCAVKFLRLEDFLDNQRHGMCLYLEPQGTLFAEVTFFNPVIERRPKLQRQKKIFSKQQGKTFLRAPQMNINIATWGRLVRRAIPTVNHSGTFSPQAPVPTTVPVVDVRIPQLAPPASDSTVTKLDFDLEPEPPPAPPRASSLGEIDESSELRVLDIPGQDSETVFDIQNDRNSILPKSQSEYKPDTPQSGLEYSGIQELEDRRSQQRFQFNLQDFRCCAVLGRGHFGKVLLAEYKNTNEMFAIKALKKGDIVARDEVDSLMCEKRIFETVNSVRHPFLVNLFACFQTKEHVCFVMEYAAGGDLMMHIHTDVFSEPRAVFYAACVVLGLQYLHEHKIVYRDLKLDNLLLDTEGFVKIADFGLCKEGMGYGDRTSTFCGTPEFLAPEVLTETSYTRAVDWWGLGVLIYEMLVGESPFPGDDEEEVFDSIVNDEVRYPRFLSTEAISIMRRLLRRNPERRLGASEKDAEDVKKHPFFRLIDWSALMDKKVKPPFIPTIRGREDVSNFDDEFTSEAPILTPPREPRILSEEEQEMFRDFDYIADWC

UHMK1 = target: T3, UHMK1 (UniProt Q8TAS1)
T3 sequence (whole entry): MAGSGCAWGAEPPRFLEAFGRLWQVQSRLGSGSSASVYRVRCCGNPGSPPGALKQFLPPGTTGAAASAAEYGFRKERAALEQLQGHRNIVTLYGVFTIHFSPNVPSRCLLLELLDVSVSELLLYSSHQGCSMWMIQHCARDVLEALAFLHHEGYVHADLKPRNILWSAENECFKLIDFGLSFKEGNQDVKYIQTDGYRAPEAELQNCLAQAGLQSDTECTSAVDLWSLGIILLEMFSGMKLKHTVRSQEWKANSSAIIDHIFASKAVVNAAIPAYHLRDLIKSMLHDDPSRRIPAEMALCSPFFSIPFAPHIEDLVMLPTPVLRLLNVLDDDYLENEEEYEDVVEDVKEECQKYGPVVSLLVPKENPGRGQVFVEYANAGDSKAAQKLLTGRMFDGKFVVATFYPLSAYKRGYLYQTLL

UniProt Q99683 = target: T4, UniProt Q99683
T4 sequence (whole entry): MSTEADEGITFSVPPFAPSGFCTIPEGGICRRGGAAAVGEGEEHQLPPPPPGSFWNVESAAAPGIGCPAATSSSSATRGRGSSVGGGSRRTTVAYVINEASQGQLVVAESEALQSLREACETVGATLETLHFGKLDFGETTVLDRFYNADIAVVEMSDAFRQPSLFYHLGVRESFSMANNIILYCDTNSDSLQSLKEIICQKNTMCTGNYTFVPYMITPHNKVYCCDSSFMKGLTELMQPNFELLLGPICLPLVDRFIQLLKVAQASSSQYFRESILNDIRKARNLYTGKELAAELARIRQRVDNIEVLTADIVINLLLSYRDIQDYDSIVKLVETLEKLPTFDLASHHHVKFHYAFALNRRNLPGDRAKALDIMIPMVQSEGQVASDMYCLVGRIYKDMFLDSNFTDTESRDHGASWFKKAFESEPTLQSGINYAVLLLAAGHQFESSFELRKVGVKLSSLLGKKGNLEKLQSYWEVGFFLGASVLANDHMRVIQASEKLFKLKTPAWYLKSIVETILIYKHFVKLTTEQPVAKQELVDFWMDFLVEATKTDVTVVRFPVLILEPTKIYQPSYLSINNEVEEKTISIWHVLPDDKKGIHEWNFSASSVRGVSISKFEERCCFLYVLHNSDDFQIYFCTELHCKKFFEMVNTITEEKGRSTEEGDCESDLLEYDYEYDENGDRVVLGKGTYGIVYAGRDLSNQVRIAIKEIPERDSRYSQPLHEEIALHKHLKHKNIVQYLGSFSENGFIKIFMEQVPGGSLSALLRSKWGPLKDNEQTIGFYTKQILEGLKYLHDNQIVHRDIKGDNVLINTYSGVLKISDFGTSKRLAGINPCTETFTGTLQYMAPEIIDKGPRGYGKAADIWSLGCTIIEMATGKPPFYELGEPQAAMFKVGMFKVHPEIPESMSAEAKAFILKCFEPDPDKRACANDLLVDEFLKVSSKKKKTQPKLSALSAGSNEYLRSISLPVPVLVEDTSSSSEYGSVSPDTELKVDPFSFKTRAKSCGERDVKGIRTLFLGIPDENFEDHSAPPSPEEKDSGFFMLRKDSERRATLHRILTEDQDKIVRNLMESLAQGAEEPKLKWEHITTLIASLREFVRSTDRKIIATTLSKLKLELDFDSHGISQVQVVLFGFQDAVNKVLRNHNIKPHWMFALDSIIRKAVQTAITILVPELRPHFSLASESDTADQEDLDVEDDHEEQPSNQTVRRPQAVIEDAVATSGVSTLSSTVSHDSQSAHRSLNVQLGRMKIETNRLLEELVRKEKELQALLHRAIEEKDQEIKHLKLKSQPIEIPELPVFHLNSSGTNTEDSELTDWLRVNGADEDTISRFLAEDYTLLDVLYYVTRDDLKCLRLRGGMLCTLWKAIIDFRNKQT

UniProt P28482 = target: UniProt P28482
Sequence of UniProt P28482 (P28482 whole entry): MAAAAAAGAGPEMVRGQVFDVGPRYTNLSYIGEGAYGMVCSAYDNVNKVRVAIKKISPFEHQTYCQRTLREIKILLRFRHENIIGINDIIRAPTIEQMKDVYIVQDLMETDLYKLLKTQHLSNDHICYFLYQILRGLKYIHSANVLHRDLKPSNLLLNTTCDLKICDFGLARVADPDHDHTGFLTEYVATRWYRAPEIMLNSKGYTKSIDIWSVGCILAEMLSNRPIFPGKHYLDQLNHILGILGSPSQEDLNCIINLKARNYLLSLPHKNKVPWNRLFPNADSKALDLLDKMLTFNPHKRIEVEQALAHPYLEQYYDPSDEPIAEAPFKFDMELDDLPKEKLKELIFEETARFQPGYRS

Sequence of STK33 (Q9BYT3 whole entry, looked up): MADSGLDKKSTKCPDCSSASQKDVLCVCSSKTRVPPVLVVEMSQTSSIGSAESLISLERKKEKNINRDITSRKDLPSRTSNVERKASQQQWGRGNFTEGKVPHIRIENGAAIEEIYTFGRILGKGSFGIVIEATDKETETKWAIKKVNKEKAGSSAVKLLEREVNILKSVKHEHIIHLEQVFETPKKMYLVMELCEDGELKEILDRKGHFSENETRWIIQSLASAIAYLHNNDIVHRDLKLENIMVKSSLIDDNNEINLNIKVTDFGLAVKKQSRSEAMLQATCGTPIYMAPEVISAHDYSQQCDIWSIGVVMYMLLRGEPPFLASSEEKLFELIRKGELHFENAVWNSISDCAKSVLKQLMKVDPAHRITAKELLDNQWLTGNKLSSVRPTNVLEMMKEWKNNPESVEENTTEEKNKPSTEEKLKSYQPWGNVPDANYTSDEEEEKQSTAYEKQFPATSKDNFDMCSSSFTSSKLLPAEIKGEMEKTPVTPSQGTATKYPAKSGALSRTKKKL

- pIC50 (STK33): < 4.52
- pIC50 (TXK): < 4.52
- pIC50 (ULK3): < 4.52
- pIC50 (UniProt Q16513): < 4.52
- pIC50 (UHMK1): < 4.52
- pIC50 (UniProt Q99683): < 4.52
- pIC50 (UniProt P28482): < 4.52
Compound: CCc1cnn2c(NCc3ccc[n+]([O-])c3)cc(N3CCCC[C@H]3CCO)nc12 [dinaciclib]
